Starred links: 1 amine or outer side, 2 acyl side, 3 side chain; linkers in the order of their positions; H or OH if unused. Non-standard residues stand in square brackets, D forms with d. Residues, ends and D or L forms follow the SMILES beside them. Groups on a side chain read outwards from the residue. Primed or numbered codes have the meaning given here. ξ: configuration not given here. *: point of attachment. γGlu = O=C(O)[C@H](CCC(=O)[*:2])N[*:1]; αMeF = C[C@](N)(Cc1ccccc1)C(=O)O; ξαMeF = CC(N)(Cc1ccccc1)C(=O)O; αMeK = C[C@](N)(CCCCN)C(=O)O; Lauroyl = CCCCCCCCCCCC(=O)*; ξαMeK = CC(N)(CCCCN)C(=O)O; PEG2′ = not defined here; ξαMeS = CC(N)(CO)C(=O)O; AEEA = NCCOCCOCC(=O)O; Aib = CC(C)(N)C(=O)O
Tested on: Caco-2 cells
Assay: Caco-2 study, Permeability (%) of lipidated peptides (Example 3)
Format: in vitro ADME, human
Details: 0.1 mg/mL peptide
Text: The Caco-2 cell line is a continuous cell line of heterogeneous human epithelial colorectal adenocarcinoma cells, which when cultured under specific conditions, become differentiated and polarized such that their phenotype, morphologically and functionally, resembles the enterocytes lining the small intestine. Caco-2 cells express tight junctions, microvilli, and a number of enzymes and transporters that are characteristic of such enterocytes. Caco-2 cells are most commonly used as a tight junction monolayer that provides a physical and biochemical barrier to the passage of drugs and thus serves as an in vitro model of the human small intestinal mucosa to predict the absorption of orally administered drugs. Caco-2 permeability assays were performed by Cyprotex US, LLC (MA, USA) to assess the efficacy of different permeation enhancers. Caco-2 cells were grown on Transwell filters until a transepithelial electric resistance of ˜1000 ohms/cm^2 was achieved. The cells were incubated for three hours with media containing test samples on the apical (top) side of the cell layer, and with blank media on the basolateral (lower) side of the cell layer. Media from the apical and basolateral sides was collected separately after three hours and evaluated for the amount of peptide present on each side. Table 2 gives the permeability coefficient (Papp) of the various test samples, which include the SEQ ID NO:3 GLP-1 peptide in the presence of different excipients.
A following Caco-2 study was performed to evaluate the permeability of different peptides in the presence of various permeation enhancers. Permeability (%) was calculated by dividing the cumulative amount of molecules transported with the original loading amount. Concentrations of peptides in starting sample and apical and basal solutions after incubation for pre-determined periods were analyzed by HPLC. Sodium chenodeoxycholate at 25 mg/mL effected the highest permeability of each tested peptide (Table 4).

[1] = 5.0 mg/mL Sodium Chenodeoxycholate
[2] = 25 mg/mL Sodium Chenodeoxycholate

Compound | Permeability (%) [1] [%] | Permeability (%) [2] [%]
CCCCCCCCCCCC(=O)N[C@@H](CCC(=O)NCCOCCOCC(=O)NCCOCCOCC(=O)NCCCC[C@H](NC(=O)[C@H](CC(=O)O)NC(=O)[C@H](CO)NC(=O)[C@@H](NC(=O)C(C)(Cc1ccccc1)NC(=O)[C@H](CO)NC(=O)CNC(=O)[C@H](CCC(=O)O)NC(=O)C(C)(C)NC(=O)[C@@H](N)Cc1c[nH]cn1)[C@@H](C)O)C(=O)N[C@@H](CO)C(=O)N[C@@H](CO)C(=O)N[C@@H](Cc1ccc(O)cc1)C(=O)N[C@@H](CC(C)C)C(=O)N[C@@H](CCC(=O)O)C(=O)NCC(=O)N[C@@H](CCC(=O)O)C(=O)N[C@@H](C)C(=O)N[C@@H](C)C(=O)NC(C)(CCCCN)C(=O)N[C@@H](CCC(=O)O)C(=O)N[C@@H](Cc1ccccc1)C(=O)N[C@H](C(=O)N[C@@H](CCCCNC(=O)COCCOCCNC(=O)COCCOCCNC(=O)CC[C@H](NC(=O)CCCCCCCCCCC)C(=O)O)C(=O)N[C@@H](Cc1c[nH]c2ccccc12)C(=O)N[C@H](C(=O)N[C@H](C(=O)N[C@@H](CCC(=O)O)C(=O)NCC(=O)NCC(N)=O)C(C)C)C(C)C)[C@@H](C)CC)C(=O)O (some centres unmarked) [SEQ ID NO: 8] (H-H[Aib]EGS[ξαMeF]TSDK([AEEA-AEEA-γGlu-Lauroyl])SSYLEGEAA[ξαMeK]EFIK([AEEA-AEEA-γGlu-Lauroyl])WVVEGG-NH2) | 1.7 | 11.6
CCCCCCCCCCCC(=O)N[C@@H](CCC(=O)NCCOCCOCC(=O)NCCOCCOCC(=O)NCCCC[C@H](NC(=O)[C@H](C)NC(=O)[C@@H](NC(=O)[C@H](Cc1ccccc1)NC(=O)[C@H](CCC(=O)O)NC(=O)C(C)(CCCCN)NC(=O)[C@H](C)NC(=O)[C@H](C)NC(=O)[C@H](CCC(=O)O)NC(=O)CNC(=O)[C@H](CCC(=O)O)NC(=O)[C@H](CCCCNC(=O)COCCOCCNC(=O)COCCOCCNC(=O)CC[C@H](NC(=O)CCCCCCCCCCC)C(=O)O)NC(=O)[C@H](Cc1ccc(O)cc1)NC(=O)[C@H](CO)NC(=O)C(C)(CO)NC(=O)[C@@H](NC(=O)[C@H](CC(=O)O)NC(=O)[C@H](CO)NC(=O)[C@@H](NC(=O)C(C)(Cc1ccccc1)NC(=O)[C@H](CO)NC(=O)CNC(=O)[C@H](CCC(=O)O)NC(=O)C(C)(C)NC(=O)[C@@H](N)Cc1c[nH]cn1)[C@@H](C)O)C(C)C)[C@@H](C)CC)C(=O)N[C@H](C(=O)N[C@H](C(=O)N[C@@H](CCC(=O)O)C(=O)NCC(=O)NCC(N)=O)C(C)C)C(C)C)C(=O)O (some centres unmarked) [SEQ ID NO: 9, Free-H-[AIB]-EGS-[αMePhe]-TSDV-[αMeSer]-SYK[(PEG2)2-γE-Lauroyl]-EGEAA-[αMeLys]-EFIAK[(PEG2)2-γE-Lauroyl]-VVEGG-amide] (H-H[Aib]EGS[ξαMeF]TSDV[ξαMeS]SYK([AEEA-AEEA-γGlu-Lauroyl])EGEAA[ξαMeK]EFIAK([AEEA-AEEA-γGlu-Lauroyl])VVEGG-NH2) | 3.1 | 13.9
CC[C@H](C)[C@H](NC(=O)[C@H](Cc1ccccc1)NC(=O)[C@H](CCC(=O)O)NC(=O)[C@H](CCCCNC(=O)COCCOCCNC(=O)COCCOCCNC(=O)CC[C@H](NC(=O)CCCCCCCCCCCCCCCCC(=O)O)C(=O)O)NC(=O)[C@H](C)NC(=O)[C@H](C)NC(=O)[C@H](CCC(=O)O)NC(=O)CNC(=O)[C@H](CCC(=O)O)NC(=O)[C@H](CC(C)C)NC(=O)C(C)(Cc1ccccc1)NC(=O)[C@H](CO)NC(=O)C(C)(CO)NC(=O)[C@@H](NC(=O)[C@H](CC(=O)O)NC(=O)[C@H](CO)NC(=O)[C@@H](NC(=O)C(C)(Cc1ccccc1)NC(=O)[C@H](CO)NC(=O)CNC(=O)[C@H](CCC(=O)O)NC(=O)C(C)(C)NC(=O)[C@@H](N)Cc1c[nH]cn1)[C@@H](C)O)C(C)C)C(=O)N[C@@H](C)C(=O)NC(C)(Cc1ccccc1)C(=O)N[C@H](C(=O)N[C@H](C(=O)NC(C)(CCCCN)C(=O)NCC(=O)NCC(N)=O)C(C)C)C(C)C (stereo partly drawn) [SEQ ID NO: 4, Free-H-[AIB]-EGS-[αMePhe]-TSDV-[αMeSer]-S-[αMePhe]-LEGEAAK[(PEG2)2-γE-Stearate]-EFIA-[αMePhe]-VV-[αMeLys]-GG-amide] | 0 | 14.3
Free-H-[AIB]-EGS-[αMePhe]-TSDVSK[(PEG2)2-γE-Lauroyl]-YLEGEAA-[αMeLys]-EFIAWK[(PEG2)2-γE-Lauroyl]-VEGG-amide (H-H[Aib]EGS[αMeF]TSDVSK([PEG2′-PEG2′-γGlu-Lauroyl])YLEGEAA[αMeK]EFIAWK([PEG2′-PEG2′-γGlu-Lauroyl])VEGG-NH2) [SEQ ID NO: 7] | 2.1 | 10.3

Reference: patent publication US11173124B2, “Oral delivery of GLP-1 peptide analogs” (MEDIMMUNE LIMITED, priority 2017, dated 2021)
